{
  "source": "patent US20250099557A1",
  "about": "“ANTIBIOTIC PHARMACEUTICAL COMPOSITION CAPABLE OF SUBCUTANEOUS ADMINISTRATION” (SHANGHAI BAO PHARMACEUTICALS CO., LTD., priority 2021, published 2025)",
  "key": {"intestinal flora": {"test_system": "intestinal flora", "test": "Effects of administration routes on the diversity of intestinal flora in mice (16S rDNA sequencing, OTU)", "type": "in vivo", "conditions": "C57BL/6 mice, feces", "from_the_text": "12 SPF grade C57BL/6 mice were used for each antibiotic mode, and divided into two groups, each having 6 mice. The two groups include an oral administration group, and a subcutaneous administration group combined with recombinant human HAase. A blank control group including 6 mice was also set. The mice in the oral administration group were given the model antibiotic solution by oral gavage for five consecutive days. The mice in the subcutaneous administration group combined with recombinant human HAase were given the same dose of model antibiotic as that in the oral administration group by subcutaneous administration for five consecutive days. The feces of mice in each group were collected on the 1 st, 2nd, 3rd, 4th, 5th, 6th, 8th, 10th and 14th days after five consecutive days of administration, and stored at −80° C., for detecting the microbial diversity later. The fecal samples of each group were amplified and sequenced by 16S rDNA sequencing. After DNA extraction, PCR amplification and gene sequencing, the changes of intestinal bacterial diversity in each group of mice were analyzed. The relative species diversity of the test group was calculated, with the OUT value of the blank control group in each day as a reference, as shown in Table 33."}, "[1]": {"test": "Compatibility study of HAase and antibiotic in solution: appearance of the solution", "type": "physicochemical", "conditions": "8 solutions of antibiotic (two concentrations) with HAase 150-6000 units/ml in physiological saline", "description": "The compatibility of HAase and an antibiotic was studied by preparing a solution comprising the two substances. A dry Meropenem power for injection was dissolved in physiological saline to give a concentration of 5 mg/ml and 50 mg/ml, and then HAase was added to give a final concentration of 150, 500, 2000, and 6000 units/ml respectively. After preparation, the solution was left to stand at room temperature for 15 min. The appearance of the solution was observed, and the concentration of HAase was determined.\nThe compatibility of HAase and an antibiotic was studied by preparing a solution comprising the two substances. A dry Ceftriaxone sodium power for injection was dissolved in physiological saline to give a concentration of 50 mg/ml and 250 mg/ml, and then HAase was added to give a final concentration of 150, 500, 2000, and 6000 units/ml respectively. After preparation, the solution was left to stand at room temperature for 15 min. The appearance of the solution was observed, and the concentration of HAase was determined.\nThe compatibility of HAase and an antibiotic was studied by preparing a solution comprising the two substances. A dry Azithromycin power for injection was dissolved in physiological saline to give a concentration of 10 mg/ml and 100 mg/ml, and then HAase was added to give a final concentration of 150, 500, 2000, and 6000 units/ml respectively. After preparation, the solution was left to stand at room temperature for 15 min. The appearance of the solution was observed, and the concentration of HAase was determined.\nThe compatibility of HAase and an antibiotic was studied by preparing a solution comprising the two substances. A dry Cefradine powder for injection was dissolved in physiological saline to give a concentration of 50 mg/ml and 250 mg/ml, and then HAase was added to give a final concentration of 150, 500, 2000, and 6000 units/ml respectively. After preparation, the solution was left to stand at room temperature for 15 min. The appearance of the solution was observed, and the concentration of HAase was determined.\nThe compatibility of HAase and an antibiotic was studied by preparing a solution comprising the two substances. A dry Teicoplanin powder for injection was dissolved in physiological saline to give a concentration of 10 mg/ml and 70 mg/ml, and then HAase was added to give a final concentration of 150, 500, 2000, and 6000 units/ml respectively. After preparation, the solution was left to stand at room temperature for 15 min. The appearance of the solution was observed, and the concentration of HAase was determined.\nThe compatibility of HAase and an antibiotic was studied by preparing a solution comprising the two substances. A dry Ceftazidime powder for injection was dissolved in physiological saline to give a concentration of 20 mg/ml and 200 mg/ml, and then HAase was added to give a final concentration of 150, 500, 2000, and 6000 units/ml respectively. After preparation, the solution was left to stand at room temperature for 15 min. The appearance of the solution was observed, and the concentration of HAase was determined.\nThe compatibility of HAase and an antibiotic was studied by preparing a solution comprising the two substances. A dry Ertapenem power for injection was dissolved in physiological saline to give a concentration of 30 mg/ml and 300 mg/ml, and then HAase was added to give a final concentration of 150, 500, 2000, and 6000 units/ml respectively. After preparation, the solution was left to stand at room temperature for 15 min. The appearance of the solution was observed, and the concentration of HAase was determined.\nThe compatibility of HAase and an antibiotic was studied by preparing a solution comprising the two substances. A dry Polymyxin B powder for injection was dissolved in physiological saline to give a concentration of 50,000 units/ml and 250,000 units/ml, and then HAase was added to give a final concentration of 150, 500, 2000, and 6000 units/ml respectively."}},
  "data": [
    {"substance": "Teicoplanin", "values": [
      {"measurement": "Relative abundance of OUT (operational taxonomic units)", "setting": "intestinal flora; in combination with recombinant human HAase for subcutaneous administration, five consecutive days, D1 after administration", "result": 51.8, "unit": "%"},
      {"measurement": "Relative abundance of OUT (operational taxonomic units)", "setting": "intestinal flora; in combination with recombinant human HAase for subcutaneous administration, five consecutive days, D2", "result": 56.0, "unit": "%"},
      {"measurement": "Relative abundance of OUT (operational taxonomic units)", "setting": "intestinal flora; in combination with recombinant human HAase for subcutaneous administration, five consecutive days, D3", "result": 53.7, "unit": "%"},
      {"measurement": "Relative abundance of OUT (operational taxonomic units)", "setting": "intestinal flora; in combination with recombinant human HAase for subcutaneous administration, five consecutive days, D4", "result": 56.3, "unit": "%"},
      {"measurement": "Relative abundance of OUT (operational taxonomic units)", "setting": "intestinal flora; in combination with recombinant human HAase for subcutaneous administration, five consecutive days, D5", "result": 51.2, "unit": "%"},
      {"measurement": "Relative abundance of OUT (operational taxonomic units)", "setting": "intestinal flora; in combination with recombinant human HAase for subcutaneous administration, five consecutive days, D6", "result": 55.4, "unit": "%"},
      {"measurement": "Relative abundance of OUT (operational taxonomic units)", "setting": "intestinal flora; in combination with recombinant human HAase for subcutaneous administration, five consecutive days, D8", "result": 63.7, "unit": "%"},
      {"measurement": "Relative abundance of OUT (operational taxonomic units)", "setting": "intestinal flora; in combination with recombinant human HAase for subcutaneous administration, five consecutive days, D10", "result": 64.8, "unit": "%"},
      {"measurement": "Relative abundance of OUT (operational taxonomic units)", "setting": "intestinal flora; in combination with recombinant human HAase for subcutaneous administration, five consecutive days, D14", "result": 71.7, "unit": "%"},
      {"measurement": "Relative abundance of OUT (operational taxonomic units)", "setting": "intestinal flora; oral administration for five consecutive days, D1 after administration", "result": 44.7, "unit": "%"},
      {"measurement": "Relative abundance of OUT (operational taxonomic units)", "setting": "intestinal flora; oral administration for five consecutive days, D2", "result": 41.9, "unit": "%"},
      {"measurement": "Relative abundance of OUT (operational taxonomic units)", "setting": "intestinal flora; oral administration for five consecutive days, D3", "result": 39.8, "unit": "%"},
      {"measurement": "Relative abundance of OUT (operational taxonomic units)", "setting": "intestinal flora; oral administration for five consecutive days, D4", "result": 41.2, "unit": "%"},
      {"measurement": "Relative abundance of OUT (operational taxonomic units)", "setting": "intestinal flora; oral administration for five consecutive days, D5", "result": 39.4, "unit": "%"},
      {"measurement": "Relative abundance of OUT (operational taxonomic units)", "setting": "intestinal flora; oral administration for five consecutive days, D6", "result": 41.1, "unit": "%"},
      {"measurement": "Relative abundance of OUT (operational taxonomic units)", "setting": "intestinal flora; oral administration for five consecutive days, D8", "result": 46.3, "unit": "%"},
      {"measurement": "Relative abundance of OUT (operational taxonomic units)", "setting": "intestinal flora; oral administration for five consecutive days, D10", "result": 45.9, "unit": "%"},
      {"measurement": "Relative abundance of OUT (operational taxonomic units)", "setting": "intestinal flora; oral administration for five consecutive days, D14", "result": 49.7, "unit": "%"},
      {"measurement": "appearance of the solution", "setting": "[1]", "result": "clear and transparent"}
    ]}
  ]
}
